{"source": "ChEMBL document CHEMBL1201862", "about": "“PubChem BioAssay data set” (2004)", "experiment_in_all_cases": "DTP human tumour cell line panel, 48 h", "key": {"[1]": {"system": "UACC-257"}, "[2]": {"system": "M19-MEL"}, "[3]": {"system": "RXF 393"}, "[4]": {"system": "MOLT-4"}, "[5]": {"system": "Malme-3M"}, "[6]": {"system": "OVCAR-3"}, "[7]": {"system": "SNB-78"}, "[8]": {"system": "EKVX"}, "[9]": {"system": "SK-OV-3"}, "[10]": {"system": "KM12"}, "[11]": {"system": "LOX IMVI"}, "[12]": {"system": "HL-60"}, "[13]": {"system": "NCI-H460"}, "[14]": {"system": "SN12C"}, "[15]": {"system": "RPMI-8226"}, "[16]": {"system": "DMS-273"}, "[17]": {"system": "CCRF-CEM"}, "[18]": {"system": "SF-295"}, "[19]": {"system": "OVCAR-5"}, "[20]": {"system": "SF-539"}, "[21]": {"system": "DLD-1"}, "[22]": {"system": "HCT-15"}, "[23]": {"system": "SNB-75"}, "[24]": {"system": "OVCAR-8"}, "[25]": {"system": "OVCAR-4"}, "[26]": {"system": "MCF7"}, "[27]": {"system": "IGROV-1"}, "[28]": {"system": "KM-20L2"}, "[29]": {"system": "U-251"}, "[30]": {"system": "SK-MEL-28"}, "[31]": {"system": "NCI/ADR-RES"}, "[32]": {"system": "UACC-62"}, "[33]": {"system": "NCI-H522"}, "[34]": {"system": "SK-MEL-2"}, "[35]": {"system": "XF498"}, "[36]": {"system": "HOP-92"}, "[37]": {"system": "HCT-116"}, "[38]": {"system": "A498"}, "[39]": {"system": "SK-MEL-5"}, "[40]": {"system": "SF-268"}, "[41]": {"system": "HOP-62"}, "[42]": {"system": "HT-29"}, "[43]": {"system": "CAKI-1"}, "[44]": {"system": "HOP-18"}, "[45]": {"system": "K562"}, "[46]": {"system": "COLO 205"}, "[47]": {"system": "NCI-H23"}, "[48]": {"system": "NCI-H226"}, "[49]": {"system": "SNB-19"}, "[50]": {"system": "HCC 2998"}, "[51]": {"system": "SW-620"}, "[52]": {"system": "UO-31"}, "[53]": {"system": "A549"}}, "note": "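Cells were grown in 96-well plates and exposed to each compound for 48 hours at five concentrations; endpoints were interpolated linearly between bracketing concentrations, or set to the highest concentration if not reached. Abbreviation: GI50, concentration required for 50% inhibition of growth.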 The source made the active and inactive calls. Rule as the data show it: active = GI50 up to about 1.1 µM and inactive = higher."}
{"smiles": "NC(=S)N/N=C/c1ccc(OC(=O)COc2ccccc2Cl)cn1", "values": [{"measurement": "GI50", "setting": "[1]", "result": "50.1 µM (inactive)"}, {"measurement": "GI50", "setting": "[2]", "result": "25.9 µM (inactive)"}, {"measurement": "GI50", "setting": "[3]", "result": "> 37.5 µM (inactive)"}, {"measurement": "GI50", "setting": "[4]", "result": "16.3 µM (inactive)"}, {"measurement": "GI50", "setting": "[5]", "result": "24.4 µM (inactive)"}, {"measurement": "GI50", "setting": "[6]", "result": "23.2 µM (inactive)"}, {"measurement": "GI50", "setting": "[7]", "result": "> 80.9 µM (inactive)"}, {"measurement": "GI50", "setting": "[8]", "result": "56.4 µM (inactive)"}, {"measurement": "GI50", "setting": "[9]", "result": "> 67 µM (inactive)"}, {"measurement": "GI50", "setting": "[10]", "result": "75.7 µM (inactive)"}, {"measurement": "GI50", "setting": "[11]", "result": "27.6 µM (inactive)"}, {"measurement": "GI50", "setting": "[12]", "result": "18.4 µM (inactive)"}, {"measurement": "GI50", "setting": "[13]", "result": "35.2 µM (inactive)"}, {"measurement": "GI50", "setting": "[14]", "result": "30.5 µM (inactive)"}, {"measurement": "GI50", "setting": "[15]", "result": "46.3 µM (inactive)"}, {"measurement": "GI50", "setting": "[16]", "result": "21 µM (inactive)"}, {"measurement": "GI50", "setting": "[17]", "result": "6.1 µM (inactive)"}, {"measurement": "GI50", "setting": "[18]", "result": "> 62.7 µM (inactive)"}, {"measurement": "GI50", "setting": "[19]", "result": "44.4 µM (inactive)"}, {"measurement": "GI50", "setting": "[20]", "result": "14.3 µM (inactive)"}, {"measurement": "GI50", "setting": "[21]", "result": "33 µM (inactive)"}, {"measurement": "GI50", "setting": "[22]", "result": 39.5, "unit": "µM"}, {"measurement": "GI50", "setting": "[23]", "result": "> 54.6 µM (inactive)"}, {"measurement": "GI50", "setting": "[24]", "result": "15.7 µM (inactive)"}, {"measurement": "GI50", "setting": "[25]", "result": "32.4 µM (inactive)"}, {"measurement": "GI50", "setting": "[26]", "result": "10.5 µM (inactive)"}, {"measurement": "GI50", "setting": "[27]", "result": "> 93.1 µM (inactive)"}, {"measurement": "GI50", "setting": "[28]", "result": "40 µM (inactive)"}, {"measurement": "GI50", "setting": "[29]", "result": "25.1 µM (inactive)"}, {"measurement": "GI50", "setting": "[30]", "result": "65 µM (inactive)"}, {"measurement": "GI50", "setting": "[31]", "result": "15.4 µM (inactive)"}, {"measurement": "GI50", "setting": "[32]", "result": "14.6 µM (inactive)"}, {"measurement": "GI50", "setting": "[33]", "result": "18.1 µM (inactive)"}, {"measurement": "GI50", "setting": "[34]", "result": "42.3 µM (inactive)"}, {"measurement": "GI50", "setting": "[35]", "result": "40 µM (inactive)"}, {"measurement": "GI50", "setting": "[36]", "result": "12.9 µM (inactive)"}, {"measurement": "GI50", "setting": "[37]", "result": "26.5 µM (inactive)"}, {"measurement": "GI50", "setting": "[38]", "result": "> 72.8 µM (inactive)"}, {"measurement": "GI50", "setting": "[39]", "result": "24.8 µM (inactive)"}, {"measurement": "GI50", "setting": "[40]", "result": "17.9 µM (inactive)"}, {"measurement": "GI50", "setting": "[41]", "result": "20.5 µM (inactive)"}, {"measurement": "GI50", "setting": "[42]", "result": "48 µM (inactive)"}, {"measurement": "GI50", "setting": "[43]", "result": "44.2 µM (inactive)"}, {"measurement": "GI50", "setting": "[44]", "result": "39.3 µM (inactive)"}, {"measurement": "GI50", "setting": "[45]", "result": "23.1 µM (inactive)"}, {"measurement": "GI50", "setting": "[46]", "result": "44.6 µM (inactive)"}, {"measurement": "GI50", "setting": "[47]", "result": "12.9 µM (inactive)"}, {"measurement": "GI50", "setting": "[48]", "result": "26.5 µM (inactive)"}, {"measurement": "GI50", "setting": "[49]", "result": "47.8 µM (inactive)"}, {"measurement": "GI50", "setting": "[50]", "result": "36.6 µM (inactive)"}, {"measurement": "GI50", "setting": "[51]", "result": "31 µM (inactive)"}, {"measurement": "GI50", "setting": "[52]", "result": "36.8 µM (inactive)"}, {"measurement": "GI50", "setting": "[53]", "result": "53.6 µM (inactive)"}]}
